From patent US4829073A, “Thiadiazole oxides for treating gastrointestinal motility disorders” (Bristol-Myers Company, priority 1988, dated 1989)
Read-outs that look alike come from different tables or passages of the source.

How the values were obtained:
[1] = tested on: gastric emptying of a solid meal; assay: Gastric emptying of solid meal in conscious dogs; type: in vivo, beagle dogs; settings: for gastric half emptying time (T1/2) of a solid meal: control 208 ± 34, *P < .05; for half emptying time (t1/2) of a solid meal, in words: orally, conscious dogs
Procedure: Under aseptic conditions 10 beagle dogs were implanted with T-shaped titanium duodenal cannulas. The dogs were allowed to recover from surgery for 3 weeks. Each dog before the test was fasted for 16-18 hours. Water was provided ad lib. On the day of the test, the duodenal cannula was opened and the stomach contents were drained. The cannula was closed again and the dog was dosed orally with either placebo (10cc saline) or with test compound in 10cc saline. […] The dry weight of this food is 36 grams. After the dog had ingested the food the cannula was opened and an insert was placed in the cannula which drained the chyme through the cannula into a beaker. This collection was continued for 5 hours and samples were collected every thirty minutes. The chyme was filtered and dried in an oven. The dry weight collected every thirty minutes was deducted from the dry weight of the food left in the stomach. A time response curve of gastric emptying was developed and t1/2, the time taken to empty 50% of the solid meal from the stomach was determined. The t1/2 for the test compound at various doses was compared with controls. Significance of differences was determined using paired t-test.

[2] = tested on: guinea pig ileum (longitudinal muscle); assay: Electrically stimulated isolated guinea pig ileum; type: cell-based; settings: Cavia porcellus
Procedure: (§1) Two classical pharmacological preparations, the field stimulated guinea pig ileum and field stimulated rat fundic strip, are utilized to assess gastroprokinetic activity in vitro.
A modification of the procedure described by W. D. M. Paton, J. Physiol. (Lond), 127, 40-41P (1955). Segments of the preterminal ileal tissue, 3-4 cm in length, are mounted in a 20 ml tissue bath. The tissues are perfused at 37° C. with a modified Krebs solution and continuously gassed with 95%O2 -5% CO2. The solution is prepared with millipore water and consists of (mM/L): NaCl 116, KCl 5, CaCl2 2.5, KH2 PO4 1.2, MgSO4.7H2 O 0.5, NaHCO3 25 and Glucose 11.1.
A force displacement transducer is attached to each tissue and the resting tension adjusted to 1.0 g. The tissues are allowed to equilibrate for one hour, with washes every twenty minutes, after the stimulator is engaged or until twitch height remains stable.
Dose response curves for test compounds are established by adding single doses of the material in increasing increments until a maximal effect is achieved. Compounds are administered at volumes ranging from 0.2 to 0.6 ml to give final bath concentrations of 0.1 μM thru 100 μM. The test materials remain in contact with the tissue for 2 to 3 minutes, until the peak effect is achieved, before thorough washing with Kreb's solution. […]

rat fundic strip = assay: Electrically stimulated isolated rat stomach fundus; type: cell-based
Procedure: as §1
The rat fundic strip is prepared according to the method described by J. R. Vane, Brit. J. Pharmacol., 12, 344-349 (1957). For this preparation, strips are made by removing the fundal end of the stomach and slitting it open to form a sheet. Small cuts are made transversing the longitudinal muscle to produce two strips 3-4 cm in length. The tissues are mounted in a 20 ml organ bath containing Kreb's solution at 37° C. and are oxygenated with 95% O2 -5% CO2. Resting tension is adjusted to 1.0 g. Contractions are recorded by means of a force displacement transducer and a Beckman Dynograph Type R.
Once a consistent response to electrical field stimulation is established, varying amounts of a test compound are added to the bath. All compounds are administered three minutes prior to electrical stimulation at volumes of 0.2 ml to 0.6 ml for final bath concentrations of 0.1 μM thru 100 μM. Each tissue is thoroughly washed between each dose. A dose response curve is achieved by measuring the effect of increasing dose levels of test materials on the tissue contraction due to electrical field stimulation.

rat gastric emptying = assay: In vivo small animal gastroprokinetic activity: rat gastric emptying; set-up: species or system male Sprague-Dawley rats; settings: normal rats; for ED50: Rattus norvegicus
Procedure: IN VIVO SMALL ANIMAL GASTROPROKINETIC ACTIVITY The method used to assess rat gastric emptying is a modification of the procedures described by D. A. Droppleman et al., Journal of Pharmacological Methods, 4, 227-230 (1980). Test compounds (0.3 to 30 mg/kg in 1 ml/kg vehicle) are administered either orally or subcutaneously to male, Sprague-Dawley rats (160-180 g) that were fasted overnight. The test animals receive 2.5 ml of a freshly made milk plus ground rat chow meal by oral intubation, thirty or fifteen minutes following oral or subcutaneous administration, respectively. Rats are sacrificed 25 minutes following the test meal, and the stomachs are quickly excised. Each stomach containing the remaining meal is weighed intact on an analytical balance. To empty the contents before reweighing, each stomach is cut open, rinsed thoroughly and then blotted dry. The difference in weights indicates the amount of meal remaining in the stomach. The amount of meal retained is calculated as a percent of the total meal weight administered.

[3] = tested on: opossum lower esophageal sphincter (LES); assay: Lower esophageal sphincter pressure in the anesthetized opossum; type: in vivo
Text: This procedure measures the effect of the test compounds on the opossum lower esophageal sphincter (LES) which closely resembles the human sphincter. In order to test the effects of compounds on LES resting pressure, a small tube perfused with water at a constant flow rate is passed through the anesthetized opossum esophagus and water pressure in the tube is monitored. The method is similar to that described by R. Goyal et al., Gastroenterology, 71, 62-67 (1976). An increase in esophageal tone is measured as an increase in pressure and reported as a percent increase of the control determination. The compound of Example 1 was given as a single bolus dose of 10 mg/kg I.V. in four opossums.

[4] = tested on: circular smooth muscle contractile activity of the antral and duodenal portion of the stomach; assay: Gastric contractile activity in the anesthetized dog; type: in vivo, Male Beagle Dogs; settings: I.V. cumulative dosing 0.01 to 10 mg/kg
Procedure: The effect of test compounds on circular smooth muscle contractile activity of the antral and duodenal portion of the stomach are measured by strain gauge arches sewn on the serosal surface similar to the procedure described by […] et al., Digestion, 28, 205-209 (1983). Male Beagle Dogs, weighing 8 to 14 kg, are fasted overnight and then anesthetized with pentothal (thiopental sodium), 20 mg/kg and maintained with I.V. alpha-chloralose (100 mg/ml in PEG 400, diluted 1:1 with saline immediately before use) as needed, usually 100 mg/dose. The trachea is intubated for respiratory assistance if needed, and the right femoral artery and vein are cannulated to monitor blood pressure and administer I.V. solutions, respectively. The stomach and intestine are exposed by a midline incision, and a Walton-Brodie adjustable strain gauge arch is sewn on the ventral surface of the antrum of the stomach, 3-5 cm proximal to the pylorus. The arch is oriented to respond to contractions of the circular muscle, and the initial resting tension is set at 25 grams by adjusting the length of the arch. The preparation is allowed to stabilize for 1 to 2 hours. Fifteen minutes after observation of migrating motor complex phase III activity, test compounds are given every 10 minutes in a cumulative dosing manner beginning at 0.01 mg/kg to 10 mg/kg. The test compounds are dissolved in saline at concentrations that are dependent on the weight of each animal so that a constant volume will be administered at each dose level. […] The stomach contractions, the cumulative grams of tension developed by the stomach contractions, EKG, heart rate, blood pressure, and any additional contractile and/or electrical activities are recorded on a Beckman Dynograph. The results are expressed as the increased tension developed by the smooth muscles in response to the administration of test compound.

dopamine receptors = assay: Radioligand binding to membrane receptors: dopamine
Procedure: (§2) Radioligand binding studies to membrane receptors were carried out to assess the potential for interaction with other receptors. […] To assess any possible cardiovascular effects a bolus injection of the test compound at various doses was administered to anesthetized dogs. Thus, the compound of Example 1, at 5 mg/kg administered I.V., had no effect on heart rate or blood pressure in three anesthetized dogs.

serotonin receptors = assay: Radioligand binding to membrane receptors: serotonin
Procedure: as §2

benzodiazepine receptors = assay: Radioligand binding to membrane receptors: benzodiazepine
Procedure: as §2

GABA receptors = assay: Radioligand binding to membrane receptors: GABA
Procedure: as §2

[5] = tested on: calcium channel receptors; assay: Radioligand binding to membrane receptors: calcium channel
Procedure: as §2

[6] = tested on: heart rate or blood pressure; assay: Cardiovascular effects in anesthetized dogs; type: in vivo; settings: 5 mg/kg I.V. bolus; three anesthetized dogs
Procedure: as §2

[7] = 1.0 mg/kg P.O. (N = 3), 60 minutes before meal
[8] = 3.0 mg/kg P.O. (N = 3), 60 minutes before meal

NC1=NS(=O)(=O)N=C1NCCSCc1ccc(CN2CCCCC2)o1 [Example 2]
gastric half emptying time (T1/2) of a solid meal [1, 7]: 1.83 ± 0.3 h | half emptying time (t1/2) of a solid meal, in words ([1]; 1.0 mg/kg): significantly decreased

Nc1n[s+]([O-])nc1NCCSCc1ccc(CN2CCCCC2)o1 (stereo not shown) [Example 1, 3-Amino-4-{2-[(5-piperidinomethyl-2-furyl)methylthio]ethylamino}-1,2,5-thiadiazole 1-oxide]
EC50 ([2]; 95% confidence limits of 84-1629, bath concentrations 0.1 μM thru 100 μM, 37° C., read-out: computer projected EC50 value): 224 µM | Emax ([2]; read-out: increase in contractile amplitude, maximal response over control): 37 ± 4.8% | EC50 (rat fundic strip; bath concentrations 0.1 μM thru 100 μM, 37° C., 95% confidence limits in parentheses): 8.2 µM | Emax (rat fundic strip; read-out: increase in contractile force, maximal response over control): 82 ± 10% | ED50 (rat gastric emptying; sc, subcutaneous, 15 min before test meal, read-out: subcutaneous ED50 value, stomach emptying): 0.4 mg/kg | ED50 (rat gastric emptying; oral, 30 min before test meal, read-out: oral ED50 value, stomach emptying): 2.9 mg/kg | maximum response over control values, stomach emptying (rat gastric emptying; oral): 95±19% | maximum response over control values, stomach emptying (rat gastric emptying; subcutaneous): 105±6% | increase in LES pressure ([3]; 10 mg/kg I.V. single bolus, four opossums, percent increase of the control determination): 33% | inhibition of LES pressure following the initial increase ([3]; I.V., higher doses than 10 mg/kg): no inhibition of LES pressure following the initial increase was observed | ED50 ([4]; Canis lupus familiaris, iv, 50% of approx. 20 grams mean maximal response, read-out: ED50 value (dose necessary to achieve 10 grams of tension)): 0.24 mg/kg | duodenal tension [4]: increased the duodenal tension dose dependently | maximal response of developed tension [4]: 24±5 grams | gastric half emptying time (T1/2) of a solid meal ([1]; 0.1 mg/kg P.O. (N = 3), 60 minutes before meal): 3.4 ± 0.533 h | gastric half emptying time (T1/2) of a solid meal [1, 7]: 1.6 ± 0.233 h | gastric half emptying time (T1/2) of a solid meal [1, 8]: 1.63 ± 0.267 h | half emptying time (t1/2) of a solid meal, in words ([1]; 1.0 mg/kg): significantly decreased | binding to dopamine receptors (dopamine receptors): does not bind | binding to serotonin receptors (serotonin receptors): does not bind | binding to benzodiazepine receptors (benzodiazepine receptors): does not bind | binding to GABA receptors (GABA receptors): does not bind | binding to calcium channel receptors [5]: does not bind | effect on blood pressure [6]: no effect | effect on heart rate [6]: no effect

CNC(=C[N+](=O)[O-])NCCSCc1ccc(CN(C)C)o1 [Ranitidine, ranitidine, reference compound]
gastric half emptying time (T1/2) of a solid meal [1, 7]: 3.43 ± 0.517 h | gastric half emptying time (T1/2) of a solid meal [1, 8]: 3.43 ± 0.4 h | half emptying time (t1/2) of a solid meal, in words ([1]; at the tested doses (1.0 and 3.0 mg/kg)): ineffective

CCN(CC)CCNC(=O)c1cc(Cl)c(N)cc1OC [Metoclopramide, metoclopramide, reference compound]
gastric half emptying time (T1/2) of a solid meal ([1]; 0.1 mg/kg P.O. (N = 3), 30 min before meal): 2 ± 0.35 h | gastric half emptying time (T1/2) of a solid meal ([1]; 1.0 mg/kg P.O. (N = 3), 30 min before meal): 3.3 ± 0.233 h
